Values after ≈ are worked out from the molar mass of the structure shown.
Legend:
[1] = test system: Staphylococcus aureus; assay: Antibacterial activity against Staphylococcus aureus ATCC 29213 by NCCLS two-fold dilution method; type: functional
[2] = test system: Klebsiella pneumoniae; assay: Antibacterial activity against Klebsiella pneumoniae after 24 hrs by spectrophotometric analysis; type: functional, organism-based; conditions: for IC50: read-out: IC50
[3] = test system: Staphylococcus aureus; assay: Antibacterial activity against Staphylococcus aureus ATCC 29213 after 24 hrs by spectrophotometric analysis; type: functional, organism-based; conditions: for IC50: read-out: IC50
[4] = test system: Escherichia coli; assay: Antibacterial activity against Escherichia coli after 24 hrs by spectrophotometric analysis; type: functional, organism-based; conditions: for IC50: read-out: IC50
[5] = test system: Staphylococcus aureus; assay: Antibacterial activity against gentamicin-resistant Staphylococcus aureus ATCC 33592 by NCCLS two-fold dilution method; type: functional
[6] = test system: Staphylococcus aureus; assay: Antibacterial activity against methicillin-resistant Staphylococcus aureus ATCC 700699 by NCCLS two-fold dilution method; type: functional
[7] = test system: Staphylococcus aureus; assay: Antibacterial activity against Staphylococcus aureus ATCC 25923 by NCCLS two-fold dilution method; type: functional
[8] = test system: Klebsiella pneumoniae; assay: Antibacterial activity against Klebsiella pneumoniae by NCCLS two-fold dilution method; type: functional
[9] = test system: Staphylococcus aureus; assay: Antibacterial activity against gentamicin-resistant Staphylococcus aureus ATCC 33592 after 24 hrs by spectrophotometric analysis; type: functional, organism-based; conditions: for IC50: read-out: IC50
[10] = test system: Staphylococcus aureus; assay: Antibacterial activity against methicillin-resistant Staphylococcus aureus ATCC 700699 after 24 hrs by spectrophotometric analysis; type: functional, organism-based; conditions: for IC50: read-out: IC50
[11] = test system: Staphylococcus aureus; assay: Antibacterial activity against Staphylococcus aureus ATCC 25923 after 24 hrs by spectrophotometric analysis; type: functional, organism-based; conditions: for IC50: read-out: IC50
[12] = test system: Escherichia coli; assay: Antibacterial activity against Escherichia coli by NCCLS two-fold dilution method; type: functional
[13] = test system: L929; assay: Cytotoxicity against mouse L929 cells assessed as cell viability up to MIC 0.39 ug/ml after 24 hrs by MTT assay; type: cell-based; conditions: l929, 24 h
[14] = Staphylococcus aureus, ATCC 29213, 24 h
[15] = Staphylococcus aureus, ATCC 25923
[16] = Staphylococcus aureus, ATCC 33592, 24 h
[17] = Staphylococcus aureus, ATCC 700699, 24 h
[18] = Staphylococcus aureus, ATCC 25923, 24 h

Compound	MIC [1] [µg/mL]	MIC ([2]; Klebsiella pneumoniae, 24 h) [µg/mL]	IC50 ([2]; Klebsiella pneumoniae, 24 h) [µg/mL]	MIC [3, 14] [µg/mL]	IC50 [3, 14] [µg/mL]	MIC ([4]; Escherichia coli, 24 h) [µg/mL]	IC50 ([4]; Escherichia coli, 24 h) [µg/mL]	MIC [5] [µg/mL]	MIC [6] [µg/mL]	-logMIC [7]	MIC [7, 15] [µg/mL]	MIC [8] [µg/mL]	MIC [9, 16] [µg/mL]	IC50 [9, 16] [µg/mL]	MIC [10, 17] [µg/mL]	IC50 [10, 17] [µg/mL]	MIC [11, 18] [µg/mL]	IC50 [11, 18] [µg/mL]	MIC [12] [µg/mL]	Activity [13]	also measured
O=C(O)c1cn(Cc2ccc(C(F)(F)F)cc2)c2cc(N3CCN(C(c4ccco4)c4nnnn4C4CCCCC4)CC3)c(F)cc2c1=O (centres undefined)	1.56 (≈ 2.3 µM)	3.4 (≈ 5 µM)	1.7 (≈ 2.5 µM)	0.82 (≈ 1.21 µM)	0.75 (≈ 1.1 µM)	4.2 (≈ 6.18 µM)	2.9 (≈ 4.27 µM)	0.78 (≈ 1.15 µM)	50 (≈ 73.6 µM)	5.939	0.78 (≈ 1.15 µM)	6.25 (≈ 9.2 µM)	0.78 (≈ 1.15 µM)	0.4 (≈ 0.589 µM)	50 (≈ 73.6 µM)	> 50	0.52 (≈ 0.765 µM)	0.2 (≈ 0.294 µM)	6.25 (≈ 9.2 µM)	Non-toxic	
CC(C)(C)n1nnnc1C(c1ccc(F)cc1)N1CCN(c2cc3c(cc2F)c(=O)c(C(=O)O)cn3Cc2ccc(C(F)(F)F)cc2)CC1 (centres undefined)	3.12 (≈ 4.58 µM)			1.6 (≈ 2.35 µM)	1.4 (≈ 2.05 µM)			6.25 (≈ 9.17 µM)	25 (≈ 36.7 µM)	5.037	6.25 (≈ 9.17 µM)		2.5 (≈ 3.67 µM)	0.5 (≈ 0.733 µM)	19.8 (≈ 29 µM)	8.09 (≈ 11.9 µM)	3.1 (≈ 4.55 µM)	1 (≈ 1.47 µM)		Non-toxic	
CCn1cc(C(=O)O)c(=O)c2cc(F)c(N3CCN(C(c4cccc5ccccc45)c4nnnn4C(C)(C)C)CC3)cc21 (centres undefined)	3.12 (≈ 5.35 µM)			2.4 (≈ 4.11 µM)	0.2 (≈ 0.343 µM)			0.78 (≈ 1.34 µM)	6.25 (≈ 10.7 µM)	5.573	1.56 (≈ 2.67 µM)		0.7 (≈ 1.2 µM)	0.2 (≈ 0.343 µM)	4.9 (≈ 8.4 µM)	3.5 (≈ 6 µM)	0.8 (≈ 1.37 µM)	0.7 (≈ 1.2 µM)		Non-toxic	
CCn1cc(C(=O)O)c(=O)c2cc(F)c(N3CCN(C(c4ccncc4)c4nnnn4C4CCCCC4)CC3)cc21 (centres undefined)	3.12 (≈ 5.57 µM)	6.3 (≈ 11.2 µM)	3.5 (≈ 6.24 µM)	1 (≈ 1.78 µM)	0.6 (≈ 1.07 µM)	4.2 (≈ 7.49 µM)	2.1 (≈ 3.75 µM)	3.12 (≈ 5.57 µM)	50 (≈ 89.2 µM)	5.555	1.56 (≈ 2.78 µM)	6.25 (≈ 11.1 µM)	0.6 (≈ 1.07 µM)	0.1 (≈ 0.178 µM)	> 50	50 (≈ 89.2 µM)	1.09 (≈ 1.94 µM)	0.37 (≈ 0.66 µM)	6.25 (≈ 11.1 µM)	Non-toxic	
CCn1cc(C(=O)O)c(=O)c2cc(F)c(N3CCN(C(c4ccc(OC)c(OC)c4OC)c4nnnn4C(C)(C)C)CC3)cc21 (centres undefined)	3.12 (≈ 5 µM)	> 50	> 50	1.4 (≈ 2.24 µM)	0.8 (≈ 1.28 µM)	46 (≈ 73.8 µM)	29 (≈ 46.5 µM)	3.12 (≈ 5 µM)	50 (≈ 80.2 µM)	5.602	1.56 (≈ 2.5 µM)	> 50	0.87 (≈ 1.39 µM)	0.75 (≈ 1.2 µM)	50 (≈ 80.2 µM)	50 (≈ 80.2 µM)	0.81 (≈ 1.3 µM)	0.4 (≈ 0.641 µM)	50 (≈ 80.2 µM)	Non-toxic	
CCn1cc(C(=O)O)c(=O)c2cc(F)c(N3CCN(C(c4ccccc4)c4nnnn4C(C)(C)C)CC3)cc21 (centres undefined)	0.78 (≈ 1.46 µM)			0.5 (≈ 0.937 µM)	0.2 (≈ 0.375 µM)			0.39 (≈ 0.731 µM)	25 (≈ 46.9 µM)	6.136	0.39 (≈ 0.731 µM)		0.38 (≈ 0.712 µM)	0.34 (≈ 0.637 µM)	8.3 (≈ 15.6 µM)	3.8 (≈ 7.12 µM)	0.38 (≈ 0.712 µM)	0.37 (≈ 0.693 µM)		Non-toxic	
GENTAMICIN	> 50							> 50	> 50			1.56							1.56		MIC [2]: 2.1 µg/mL; MIC [3]: > 50 µg/mL; MIC [4]: 2.1 µg/mL; MIC [7]: 1.56 µg/mL; MIC [9]: > 50 µg/mL; MIC [10]: > 50 µg/mL; MIC [11]: 2.1 µg/mL
